{
  "source": "patent US10086090B2",
  "about": "“Indocyanine compound, synthesis method and purification method thereof, diagnostic composition using the indocyanine compound, and device for measuring biokinetics and device for visualizing circulation using the diagnostic composition” (NATIONAL UNIVERSITY CORPORATION MIE UNIVERSITY, priority 2010, dated 2018)",
  "key": {"[1]": {"details": "in DMSO, at 25° C.; cited from earlier work"}, "[2]": {"test": "Luminance of dorsalis pedis in λ-carrageenin edema rats (acute inflammation experiment)", "assay_type": "in vivo, rat", "description": "Rats (male, Wister rat) which were 10-week old and about 350 g were selected as a test animal (n=4). The rat was generally anesthetized with isoflurane, and 0.1 mL of 0.5% […] was injected to a left posterior footpad using a 26 G needle, thus resulting quick generation of edema on the foot. After 15 minutes, a volume of the left foot of the rat was measured using a rat footpad volume-measuring device (MK-101 CMP PLETHYSMOMETER manufactured by Muromachi Kikai Co., Ltd.).\nAfter that, the isoflurane was off and the emergence of the rat was confirmed. After Von Frey test was performed, the rat was generally anesthetized with isoflurane again. […]\nA moiety (ROI) to be measured by the PDE camera was set at a central part of the dorsalis pedis and light was turned off. […] After that, luminance was measured for one minute at 5 minute-intervals and the measurement was continued until 120 minutes from the infusion. […]\nAfter 7 days, a Von Frey test was performed and then the rat was quickly generally anesthetized with isoflurane, and the volume of the left foot of the rat was measured by using the rat footpad volume-measuring device. […] After that, luminance was measured for one minute at 5 minute-intervals and the measurement was continued until 120 minutes from the infusion. […]"}, "[3]": {"test": "Fluorescence in blood (surface fluorescence spectrum)", "details": "100 μM in blood (human), 25° C., 760 nm excitation", "description": "The fluorescence of ICG and the cyclodextrin-bonded indocyanine compounds of the present invention (the chemical formulae 16, 20, 21, and 23 to 25) in blood was studied. ICG and the cyclodextrin-bonded indocyanine compounds of the present invention (the chemical formulae 16, 20, 21, and 23 to 25) were respectively dissolved in blood (human) in a concentration of 100 μM. The resulting blood was put in a triangular quartz cell at 25° C., which was excited with 760 nm excitation light (bandpass: 10 nm), and a surface fluorescence spectrum (bandpass: 10 nm) was measured. […] The cyclodextrin-bonded indocyanine compounds of the present invention, in particular, the compounds represented by the chemical formula 16 and the chemical formula 20 had respectively fluorescence intensities of 270 (arbitrary unit) and 190 (arbitrary unit), which were 4.7-fold and 3.3-fold of that of ICG. It could be considered that this is caused because the emission of light from the cyclodextrin-bonded indocyanine compound of the present invention was not hindered in the living body."}, "[4]": {"test": "Fluorescence in aqueous solution", "assay_type": "physicochemical", "details": "0.1 μM aqueous solution, 25° C., 720 nm excitation; relative to ICG 0.13 in DMSO", "description": "The fluorescence of ICG and the cyclodextrin-bonded indocyanine compounds of the present invention (the chemical formulae 16, 20, 21, and 23 to 25) in an aqueous solution was studied. A 0.1 μM aqueous solution including ICG or each of the cyclodextrin-bonded indocyanine compounds of the present invention (the chemical formulae 16, 20, 21, and 23 to 25) was put in a 1 cm square quartz cell at 25° C., which was excited with 720 nm excitation light (bandpass: 10 nm), and a fluorescence spectrum (bandpass: 10 nm) was measured. A fluorescence efficiency was calculated based on a fluorescence efficiency of ICG, 0.13 (in DMSO, at 25° C.). […] The fluorescence quantum efficiencies thereof were respectively 2.6-fold and 2-fold of that of ICG."}, "[5]": {"test": "Observation at blood vessel level (cremaster skin flap)", "assay_type": "in vivo", "details": "rat, exposed blood vessel", "description": "ICG or TK1 was administered in a state in which a blood vessel of a rat was directly exposed and observed by methods disclosed in Non Patent Documents 7 and 8 (FIG. 15), and a state of a cremaster skin flap after the exposure is shown in FIG. 16. ICG or TK1 was administered in the state in which the blood vessel was exposed, and the observation was performed. As a result, it was observed that ICG was unevenly distributed in the blood vessel, compared to TK1. […] In order to more precisely study it, photomicrographs of the blood vessel after the administration are shown in FIG. 17 (ICG) and FIG. 18 (TK1)."}, "[6]": {"test": "Solubility tests in water or physiological saline", "assay_type": "physicochemical", "details": "powder", "description": "Solubility tests of ICG and the cyclodextrin-bonded indocyanine compounds of the present invention (the chemical formulae 16, 20, 21, and 23 to 25) in water or physiological saline were performed."}, "[7]": {"test": "Ischemia model of lower limbs (ligation of right femoral artery)", "assay_type": "in vivo", "details": "rat", "from_the_text": "As apparent from the image view 12, the state in which the fluorescence was emitted in accordance with the blood flow was clear in the dorsal region of foot."}, "[8]": {"details": "cited from earlier work"}, "[9]": {"test": "Molecule association in aqueous solution (optical absorption spectrum)", "assay_type": "physicochemical", "details": "0.01 mM to 0.1 mM aqueous solutions, 25° C., absorption 600 nm to 1000 nm", "description": "The molecule association of ICG and the cyclodextrin-bonded indocyanine compounds of the present invention (the chemical formulae 16, 20, 21, and 23 to 25) in an aqueous solution was studied. Each of 0.01 mM, 0.025 mM, 0.05 mM, and 0.1 mM aqueous solutions including ICG or the cyclodextrin-bonded indocyanine compound of the present invention (each chemical formula 16, 20, 21, and 23 to 25) was prepared, it was put in a quartz cell having a length of an optical path of 1 mm, and an optical absorption spectrum at 600 nm to 1000 nm was measured at 25° C."}, "[10]": {"test": "Observation of distribution in rat body (caudate vein administration, PDE camera)", "assay_type": "in vivo", "description": "Left is a monochrome image through visible light, and right is a fluorescence image.\nAfter Wistar male rat (9-week old, a body weight of 350 g) was ether-anesthetized, 0.1 mL of Nembutal was intraperitoneally administered using a 26 G needle to perform the anesthesia. A base of the rat's tail was wrapped tightly with a rubber band to prevent the flow of blood, and the caudate vein was secured with a 24 G Therflow needle and a peripheral line were secured by inserting a three-way stopcock and an extension tube. The rat was fixed on a flat stand in a supine position (FIG. 8). A PDE camera unit manufactured by Hamamatsu Photonics K.K. was set at exactly 16 cm from the body of the rat. When the whole body was extensively photographed, the distance was 20 cm. The observation range was an about range shown by black dots in FIG. 8. After that, ICG, TK1 or TK2 was administered in a concentration of 1 mM from the peripheral line secured. The administration amount was 0.1 mL. After 20 minutes from the administration, the fluorescence state of the abdominal cavity which was opened is shown in FIG. 9, and the fluorescence state (images at the maximum luminance) of the dorsal region of foot was shown in FIG. 12.\nIn addition, a time reaching the maximum fluorescence intensity value (Imax), Imax value and a time at which the value reached a half of the Imax value (t1/2) are shown in Table 1."}, "[11]": {"details": "rat dorsal region of foot, 1 mM 0.1 mL caudate vein"}},
  "data": [
    {"molecule": "CC1(C)C(/C=C/C=C/C=C/C=C2\\N(CCCCS(=O)(=O)O)c3ccc4ccccc4c3C2(C)C)=[N+](CCCCS(=O)(=O)[O-])c2ccc3ccccc3c21", "note": "[ICG, indocyanine green]", "values": [
      {"measurement": "fluorescence efficiency (reference value)", "setting": "[1]", "value": 0.13},
      {"measurement": "time for luminance in ROI to decrease to the base line", "setting": "[2]; rat dorsalis pedis, 0.1 mL caudate vein", "value": "about 10 minutes"},
      {"measurement": "luminance change of dorsalis pedis, λ-carrageenin group versus control", "setting": "[2]; rat, dye infused after λ-carrageenin injection, interstitial tissue phase", "value": "the difference in the luminance was not observed"},
      {"measurement": "fluorescence intensity at the maximum fluorescence wavelength", "setting": "[3]", "value": 58, "unit": "arbitrary unit"},
      {"measurement": "fluorescence quantum efficiency", "setting": "[4]", "value": 0.021},
      {"measurement": "transfer from the blood vessel into the interstitial tissue fluid", "setting": "[5]", "value": "hardly transferred from the blood vessel into the interstitial tissue fluid"},
      {"measurement": "dissolving in water or physiological saline (need for vibration-stirring)", "setting": "[6]", "value": "About one minute violent vibration-stirring was necessary"},
      {"measurement": "fluorescence in the ischemia area", "setting": "[7]", "value": "the fluorescence was not observed in the ischemia area"},
      {"measurement": "organ of accumulation (as already known)", "setting": "[8]", "value": "highly accumulated in liver"},
      {"measurement": "molecule association called H-aggregation", "setting": "[9]", "value": "occurred"},
      {"measurement": "organ of main accumulation", "setting": "[10]; Wistar rat, 1 mM 0.1 mL caudate vein, 20 minutes after administration, abdominal cavity opened", "value": "mainly accumulated in the liver"},
      {"measurement": "half-life", "setting": "[10]; male, Wistar, intravenous, 0.1 mL of 1 mM solution, rat dorsal region of foot, 1 mM 0.1 mL caudate vein, read-out: t1/2 (time at which the value reached a half of the Imax value)", "value": 2.3, "unit": "min"},
      {"measurement": "time after administration until fluorescence intensity was reduced to about initial value", "setting": "[10]; rat dorsal region of foot", "value": "less than 10 minutes"},
      {"measurement": "Imax* (maximum fluorescence intensity value)", "setting": "[10]; [11]", "value": 124},
      {"measurement": "Time for Imax (time reaching the maximum fluorescence intensity value)", "setting": "[10]; [11]", "value": 0.5, "unit": "min"}
    ]}
  ]
}
